Measurements reported in patent publication US20240109917A1 (ACTELION PHARMACEUTICALS LTD, priority 2020, published 2024).
Like-named read-outs stand apart in the source and are kept apart here.

Legend:
[1] = target: Tb-labeled inactive PDGFRβ (Homo sapiens (Human), UniProt P09619); assay: PDGFRβ LanthaScreen Assay; type: binding; conditions: read-out: PDGFR Lantha IC50
PDGFRβ = PDGFRβ (Rattus norvegicus (Rat), UniProt Q05030); assay: PDGFRβ Cellular Assay (PDGFRb P-Y751 HTRF in A10 cells stimulated with PDGF-BB); type: cell-based
PDGFRβ, sequence (Q05030 32-1097): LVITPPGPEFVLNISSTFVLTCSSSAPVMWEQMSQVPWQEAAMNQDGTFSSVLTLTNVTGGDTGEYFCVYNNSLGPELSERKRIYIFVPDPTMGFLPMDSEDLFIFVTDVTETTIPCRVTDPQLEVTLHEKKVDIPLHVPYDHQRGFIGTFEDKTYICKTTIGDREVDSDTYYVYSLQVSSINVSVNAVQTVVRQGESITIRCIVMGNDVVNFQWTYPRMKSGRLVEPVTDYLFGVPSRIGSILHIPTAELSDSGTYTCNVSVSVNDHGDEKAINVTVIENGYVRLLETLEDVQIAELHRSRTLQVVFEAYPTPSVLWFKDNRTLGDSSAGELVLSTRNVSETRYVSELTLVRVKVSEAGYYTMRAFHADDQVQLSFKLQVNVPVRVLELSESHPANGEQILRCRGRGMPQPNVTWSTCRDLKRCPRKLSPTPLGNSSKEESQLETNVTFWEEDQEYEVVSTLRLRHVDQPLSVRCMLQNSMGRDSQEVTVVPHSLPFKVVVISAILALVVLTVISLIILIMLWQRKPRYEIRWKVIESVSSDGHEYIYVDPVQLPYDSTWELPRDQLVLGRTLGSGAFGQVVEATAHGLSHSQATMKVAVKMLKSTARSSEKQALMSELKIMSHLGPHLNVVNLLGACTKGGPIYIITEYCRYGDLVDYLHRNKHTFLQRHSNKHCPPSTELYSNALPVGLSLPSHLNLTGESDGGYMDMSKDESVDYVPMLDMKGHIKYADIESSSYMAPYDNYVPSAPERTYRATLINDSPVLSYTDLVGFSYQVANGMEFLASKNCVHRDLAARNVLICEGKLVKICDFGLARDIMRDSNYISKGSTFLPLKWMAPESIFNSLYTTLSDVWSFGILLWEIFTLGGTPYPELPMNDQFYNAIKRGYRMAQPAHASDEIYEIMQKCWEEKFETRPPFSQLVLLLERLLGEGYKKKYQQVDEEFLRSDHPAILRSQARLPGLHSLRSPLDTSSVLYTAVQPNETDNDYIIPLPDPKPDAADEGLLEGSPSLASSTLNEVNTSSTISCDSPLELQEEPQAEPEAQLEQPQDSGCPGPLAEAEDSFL
In short: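 Rat A10 cells, plated overnight, were treated with compound for 3 hours, then stimulated with PDGF-BB (working stock 100 ng/mL in 10% FBS medium). After lysis, PDGFRβ P-Y751 was detected by HTRF.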

Tb-labeled inactive PDGFRβ, sequence (P09619 33-1106): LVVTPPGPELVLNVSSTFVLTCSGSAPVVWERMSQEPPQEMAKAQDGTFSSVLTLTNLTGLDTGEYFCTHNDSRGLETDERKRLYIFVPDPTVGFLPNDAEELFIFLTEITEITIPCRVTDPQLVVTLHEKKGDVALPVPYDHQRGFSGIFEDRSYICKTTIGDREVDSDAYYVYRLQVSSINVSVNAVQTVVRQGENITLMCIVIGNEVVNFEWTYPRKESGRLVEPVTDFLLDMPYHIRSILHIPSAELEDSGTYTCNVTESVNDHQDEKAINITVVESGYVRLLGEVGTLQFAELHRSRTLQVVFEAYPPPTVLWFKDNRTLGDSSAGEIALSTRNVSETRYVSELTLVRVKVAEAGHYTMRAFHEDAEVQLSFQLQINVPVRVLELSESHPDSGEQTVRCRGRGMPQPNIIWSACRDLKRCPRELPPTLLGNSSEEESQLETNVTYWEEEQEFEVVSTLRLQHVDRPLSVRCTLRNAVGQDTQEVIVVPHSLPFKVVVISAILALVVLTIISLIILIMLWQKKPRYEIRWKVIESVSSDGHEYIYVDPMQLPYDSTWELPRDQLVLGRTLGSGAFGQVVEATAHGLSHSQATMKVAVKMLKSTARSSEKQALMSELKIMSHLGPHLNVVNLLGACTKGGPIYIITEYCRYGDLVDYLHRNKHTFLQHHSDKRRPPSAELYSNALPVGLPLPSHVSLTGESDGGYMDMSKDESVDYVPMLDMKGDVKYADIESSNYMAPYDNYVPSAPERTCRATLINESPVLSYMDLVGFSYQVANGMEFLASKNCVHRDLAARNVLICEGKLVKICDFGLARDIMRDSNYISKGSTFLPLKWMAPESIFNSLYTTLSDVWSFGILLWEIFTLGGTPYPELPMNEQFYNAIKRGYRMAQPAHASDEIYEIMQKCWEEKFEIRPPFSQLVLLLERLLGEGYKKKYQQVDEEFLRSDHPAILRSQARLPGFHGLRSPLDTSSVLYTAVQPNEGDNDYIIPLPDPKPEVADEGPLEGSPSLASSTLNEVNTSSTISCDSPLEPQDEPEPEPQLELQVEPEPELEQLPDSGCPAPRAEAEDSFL

Row | SMILES | IC50 [1] [nM] | IC50 (PDGFRβ; PDGFR Cellular IC50) [nM] | IC50 (PDGFRβ; read-out: PDGFR Cellular IC50) [nM]
1 | Cc1ncc(C(=O)NC2CN(C(C)(C)C)C2)cc1NC(=O)c1cnn2cc(-c3cnn(C)c3)sc12 [Example 237, N-(5-((1-(tert-butyl)azetidin-3-yl)carbamoyl)-2-methylpyridin-3-yl)-2-(1-methyl-1H-pyrazol-4-yl)pyrazolo[5,1-b]thiazole-7-carboxamide] | 57.2 | 619 | –
2 | COc1ncccc1-c1cn2ncc(C(=O)Nc3cc(C(=O)NCCN4CCCC4C)cnc3C)c2s1 (stereo not shown) [Example 228, 2-(2-Methoxypyridin-3-yl)-N-(2-methyl-5-((2-(2-methylpyrrolidin-1-yl)ethyl)carbamoyl)pyridin-3-yl)pyrazolo[5,1-b]thiazole-7-carboxamide] | 1.5 | – | 5.6
3 | Cc1ncc(NC(=O)CN(C)C2CCOCC2)cc1NC(=O)c1cnn2cc(-c3cnn(C)c3)sc12 [Example 15, 2-(1-methyl-1H-pyrazol-4-yl)-N-(2-methyl-5-(2-(methyl(tetrahydro-2H-pyran-4-yl)amino)acetamido)pyridin-3-yl)pyrazolo[5,1-b]thiazole-7-carboxamide] | 4.7 | – | 15.7
4 | Cc1ncc(C(=O)NCCN2CCCC2(C)C)cc1NC(=O)c1cnn2cc(-c3c(C)n[nH]c3C)sc12 [Example 231, 2-(3,5-Dimethyl-1H-pyrazol-4-yl)-N-(5-((2-(2,2-dimethylpyrrolidin-1-yl)ethyl)carbamoyl)-2-methylpyridin-3-yl)pyrazolo[5,1-b]thiazole-7-carboxamide] | 3.3 | – | 73.1
5 | Cc1ncc(NC(=O)OCCN2CC3CCC2C3)cc1NC(=O)c1cnn2cc(-c3cnn(C)c3)sc12 (stereo not shown) [Example 250, 2-(2-azabicyclo[2.2.1]heptan-2-yl)ethyl (6-methyl-5-(2-(1-methyl-1H-pyrazol-4-yl)pyrazolo[5,1-b]thiazole-7-carboxamido)pyridin-3-yl)carbamate] | 75.2 | – | 299
6 | Cc1ncc(C(=O)NCCN2CCCC2)cc1NC(=O)c1cnn2cc(-c3cn(C)nc3C(F)(F)F)sc12 [Example 227, 2-(1-Methyl-3-(trifluoromethyl)-1H-pyrazol-4-yl)-N-(2-methyl-5-((2-(pyrrolidin-1-yl)ethyl)carbamoyl)pyridin-3-yl)pyrazolo[5,1-b]thiazole-7-carboxamide] | 21.3 | – | 438
7 | Cc1ncc(NC(=O)CCN2CCCC2(C)C)cc1NC(=O)c1cnn2cc(-c3ccn(C)n3)sc12 [Example 12, N-(5-(3-(2,2-dimethylpyrrolidin-1-yl)propanamido)-2-methyl-pyridin-3-yl)-2-(1-methyl-1H-pyrazol-3-yl)pyrazolo[5,1-b]thiazole-7-carboxamide] | 3.3 | – | 7.7
8 | Cc1cc(C(=O)NCCN2CC[C@H](O)C2)sc1NC(=O)c1cnn2cc(-c3cnn(C)c3)sc12 [Example 195, (S)—N-(5-((2-(3-hydroxypyrrolidin-1-yl)ethyl)carbamoyl)-3-methylthiophen-2-yl)-2-(1-methyl-1H-pyrazol-4-yl)pyrazolo[5,1-b]thiazole-7-carboxamide] | > 3000 | – | > 3000
9 | Cc1ncc(C(=O)NCCN2CC3CCC2CC3)cc1NC(=O)c1cnn2cc(-c3cnn(C(F)F)c3)sc12 [Example 180, N-(5-((2-(2-azabicyclo[2.2.2]octan-2-yl)ethyl)carbamoyl)-2-methylpyridin-3-yl)-2-(1-(difluoromethyl)-1H-pyrazol-4-yl)pyrazolo[5,1-b]thiazole-7-carboxamide] | 6.1 | 38.4 | –
10 | Cc1cc(C(=O)NCCCN2CCCC2(C)C)sc1NC(=O)c1cnn2cc(-c3cnn(C)c3)sc12 [Example 201, N-(5-((3-(2,2-dimethylpyrrolidin-1-yl)propyl)carbamoyl)-3-methylthiophen-2-yl)-2-(1-methyl-1H-pyrazol-4-yl)pyrazolo[5,1-b]thiazole-7-carboxamide] | 2450 | – | 1440
11 | Cc1ncc(C(=O)NCCN2CCCC2(C)C)cc1NC(=O)c1cnn2cc(-n3ncc4cccnc43)sc12 [Example 217, N-(5-((2-(2,2-dimethylpyrrolidin-1-yl)ethyl)carbamoyl)-2-methylpyridin-3-yl)-2-(1H-pyrazolo[3,4-b]pyridin-1-yl)pyrazolo[5,1-b]thiazole-7-carboxamide] | 2.5 | – | 8.9
12 | COc1ncccc1-c1cn2ncc(C(=O)Nc3cc(C(=O)NCCN4CCC[C@H]4C)cnc3C)c2s1 [Example 242, (R)-2-(2-methoxypyridin-3-yl)-N-(2-methyl-5-((2-(2-methylpyrrolidin-1-yl)ethyl)carbamoyl)pyridin-3-yl)pyrazolo[5,1-b]thiazole-7-carboxamide] | 1.7 | – | 6.1
13 | Cc1ncc(C(=O)NC2CN(C(C)(C)C)C2)cc1NC(=O)c1cnn2cc(-c3cccc4c3cnn4C)sc12 [Example 238, N-(5-((1-(tert-butyl)azetidin-3-yl)carbamoyl)-2-methylpyridin-3-yl)-2-(1-methyl-1H-indazol-4-yl)pyrazolo[5,1-b]thiazole-7-carboxamide] | 7.5 | – | 181
14 | Cc1ncc(C(=O)NCCN2CCCC23CCC3)cc1NC(=O)c1cnn2cc(-c3cn(C)nc3C)sc12 [Example 213, N-(5-((2-(5-azaspiro[3.4]octan-5-yl)ethyl)carbamoyl)-2-methylpyridin-3-yl)-2-(1,3-dimethyl-1H-pyrazol-4-yl)pyrazolo[5,1-b]thiazole-7-carboxamide] | 1.9 | – | 2.4
15 | Cc1cc(C(=O)NCCN2CCC(O)CC2)sc1NC(=O)c1cnn2cc(-c3cnn(C)c3)sc12 [Example 191, N-(5-((2-(4-hydroxypiperidin-1-yl)ethyl)carbamoyl)-3-methylthiophen-2-yl)-2-(1-methyl-1H-pyrazol-4-yl)pyrazolo[5,1-b]thiazole-7-carboxamide] | > 3000 | – | > 3000
16 | Cc1cc(C(=O)NCCN2CCC(C)(C)C2)sc1NC(=O)c1cnn2cc(-c3cnn(C)c3)sc12 [Example 189, N-(5-((2-(3,3-dimethylpyrrolidin-1-yl)ethyl)carbamoyl)-3-methylthiophen-2-yl)-2-(1-methyl-1H-pyrazol-4-yl)pyrazolo[5,1-b]thiazole-7-carboxamide] | 319 | – | 72.3
17 | Cc1ncc(C(=O)NCCN2CCCC2)cc1NC(=O)c1cnn2cc(-c3cnn(CC(O)CO)c3)sc12 (stereo not shown) [Example 225, 2-(1-(2,3-Dihydroxypropyl)-1H-pyrazol-4-yl)-N-(2-methyl-5-((2-(pyrrolidin-1-yl)ethyl)carbamoyl)pyridin-3-yl)pyrazolo[5,1-b]thiazole-7-carboxamide] | 12.2 | – | > 2000
18 | Cc1cc(C(=O)NCCN2CCCC2(C)C)sc1NC(=O)c1cnn2cc(-c3cnn(C)n3)sc12 [Example 186, N-(5-((2-(2,2-dimethylpyrrolidin-1-yl)ethyl)carbamoyl)-3-methylthiophen-2-yl)-2-(2-methyl-2H-1,2,3-triazol-4-yl)pyrazolo[5,1-b]thiazole-7-carboxamide] | 2250 | – | 593
19 | Cc1ncc(NC(=O)OC[C@H]2CCCN2C)cc1NC(=O)c1cnn2cc(-c3cnn(C)c3)sc12 [Example 244, (R)-(1-methylpyrrolidin-2-yl)methyl (6-methyl-5-(2-(1-methyl-1H-pyrazol-4-yl)pyrazolo[5,1-b]thiazole-7-carboxamido)pyridin-3-yl)carbamate] | 15.3 | 22.9 | –
20 | Cc1ncc(NC(=O)OC2CN(C(C)(C)C)C2)cc1NC(=O)c1cnn2cc(-c3cnn(C)c3)sc12 [Example 252, 1-(tert-butyl)azetidin-3-yl (6-methyl-5-(2-(1-methyl-1H-pyrazol-4-yl)pyrazolo[5,1-b]thiazole-7-carboxamido)pyridin-3-yl)carbamate] | 53.2 | – | 79.7
21 | Cn1cc(-c2cn3ncc(C(=O)Nc4sc(C(=O)NCCN5CCCC56CCC6)cc4C#N)c3s2)cn1 [Example 206, N-(5-((2-(5-azaspiro[3.4]octan-5-yl)ethyl)carbamoyl)-3-cyanothiophen-2-yl)-2-(1-methyl-1H-pyrazol-4-yl)pyrazolo[5,1-b]thiazole-7-carboxamide] | > 3000 | – | > 3000
22 | Cc1cc(C(=O)NCCN2CCCC2(C)C)sc1NC(=O)c1cnn2cc(-c3ccncc3)sc12 [Example 187, N-(5-((2-(2,2-dimethylpyrrolidin-1-yl)ethyl)carbamoyl)-3-methylthiophen-2-yl)-2-(pyridin-4-yl)pyrazolo[5,1-b]thiazole-7-carboxamide] | 1190 | – | 1020
23 | COc1ncccc1-c1cn2ncc(C(=O)Nc3cc(NC(=O)CN4CCCC4(C)C)cnc3C)c2s1 [Example 233, N-(5-(2-(2,2-dimethylpyrrolidin-1-yl)acetamido)-2-methylpyridin-3-yl)-2-(2-methoxypyridin-3-yl)pyrazolo[5,1-b]thiazole-7-carboxamide] | 1.1 | – | 1.3
24 | Cc1ncc(NC(=O)CN2CCCC2(C)C)cc1NC(=O)c1cnn2cc(-c3cnn(C)c3)sc12 [Example 13, N-(5-(2-(2,2-dimethylpyrrolidin-1-yl)acetamido)-2-methylpyridin-3-yl)-2-(1-methyl-1H-pyrazol-4-yl)pyrazolo[5,1-b]thiazole-7-carboxamide] | 5 | – | 3.3
25 | Cc1ncc(C(=O)NCCN2CCCC2)cc1NC(=O)c1cnn2cc(-c3c(C)nn(C)c3C)sc12 [Example 223, N-(2-methyl-5-((2-(pyrrolidin-1-yl)ethyl)carbamoyl)pyridin-3-yl)-2-(1,3,5-trimethyl-1H-pyrazol-4-yl)pyrazolo[5,1-b]thiazole-7-carboxamide] | 5.7 | – | 69.5
26 | Cc1cc(C(=O)NCCN2[C@H](C)CCC[C@@H]2C)sc1NC(=O)c1cnn2cc(-c3cnn(C)c3)sc12 [Example 198, N-(5-((2-((2S,6R)-2,6-dimethylpiperidin-1-yl)ethyl)carbamoyl)-3-methylthiophen-2-yl)-2-(1-methyl-1H-pyrazol-4-yl)pyrazolo[5,1-b]thiazole-7-carboxamide] | 111 | 105 | –
